Measured values from PubChem BioAssay AID435023 (Broad Institute, 2010).
The source made the active and inactive calls. How the calls were made is not given here.

Molecular target: Protein LANA1 (Human herpesvirus 8 type P (isolate GK18)) (UniProt Q9QR71)
Experiment: disruption of KSHV LANA peptide–nucleosome binding – biochemical, fluorescence polarization, cell-free, retest, dose response (AID 435023)

Chain of Protein LANA1 (Human herpesvirus 8 type P (isolate GK18)) (Q9QR71 whole entry, looked up): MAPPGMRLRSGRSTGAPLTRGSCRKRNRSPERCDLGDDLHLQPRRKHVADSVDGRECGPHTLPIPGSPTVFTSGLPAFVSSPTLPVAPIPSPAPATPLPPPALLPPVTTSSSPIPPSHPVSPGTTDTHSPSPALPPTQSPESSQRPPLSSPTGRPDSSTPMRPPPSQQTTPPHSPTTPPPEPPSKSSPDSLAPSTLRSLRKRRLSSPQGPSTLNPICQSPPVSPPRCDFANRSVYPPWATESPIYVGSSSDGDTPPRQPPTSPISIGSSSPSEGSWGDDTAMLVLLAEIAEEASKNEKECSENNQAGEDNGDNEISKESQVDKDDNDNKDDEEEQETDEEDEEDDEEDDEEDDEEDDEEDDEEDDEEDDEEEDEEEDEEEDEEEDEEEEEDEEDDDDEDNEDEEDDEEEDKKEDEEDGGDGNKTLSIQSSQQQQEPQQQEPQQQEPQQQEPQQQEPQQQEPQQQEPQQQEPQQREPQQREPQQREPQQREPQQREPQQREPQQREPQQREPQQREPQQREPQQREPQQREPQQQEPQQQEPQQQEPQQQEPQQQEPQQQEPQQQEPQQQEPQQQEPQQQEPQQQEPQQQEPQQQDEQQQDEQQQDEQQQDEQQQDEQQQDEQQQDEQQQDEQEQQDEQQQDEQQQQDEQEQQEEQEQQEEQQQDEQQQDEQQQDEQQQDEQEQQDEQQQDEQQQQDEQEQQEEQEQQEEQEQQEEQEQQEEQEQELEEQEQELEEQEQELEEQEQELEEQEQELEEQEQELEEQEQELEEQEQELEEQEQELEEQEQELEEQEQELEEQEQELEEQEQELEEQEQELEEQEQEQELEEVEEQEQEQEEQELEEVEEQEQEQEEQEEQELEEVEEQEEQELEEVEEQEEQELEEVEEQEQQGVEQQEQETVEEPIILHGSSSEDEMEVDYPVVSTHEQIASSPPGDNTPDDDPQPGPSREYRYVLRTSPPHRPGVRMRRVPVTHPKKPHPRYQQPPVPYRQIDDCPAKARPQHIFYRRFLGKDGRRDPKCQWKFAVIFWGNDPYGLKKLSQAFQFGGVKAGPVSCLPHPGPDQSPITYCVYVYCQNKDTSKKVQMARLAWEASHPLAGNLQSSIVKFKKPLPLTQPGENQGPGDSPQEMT

Structure (SMILES) | EC50
Cc1ccc(N2C(=O)[C@@H]3C(C(=O)CN4C(=O)c5ccccc5C4=O)=NN[C@@H]3C2=O)c(C)c1 | > 7.5 µM (inactive)
CCOc1cc(C2C3=C(CCCC3=O)Nc3nc(C(=O)OC)nn32)ccc1OC (configuration not stated) | > 7.5 µM (inactive)
CC(=O)c1cccc(OC(=O)C2=CC=CN3CCS(=O)(=O)N=C23)c1 | > 7.5 µM (inactive)
CC1(C)C(c2cccs2)=[N+]([O-])C2(CCCCC/C2=N\O)N1O (configuration not stated) | > 7.5 µM (inactive)
Cc1ccc(NC2=C([N+](=O)[O-])CS(=O)(=O)C2)cc1 | > 7.5 µM (inactive)
O=C(CC1SC(N2CCOCC2)=NC1=O)Nc1ccc(Cl)c(C(F)(F)F)c1 (configuration not stated) | > 7.5 µM (inactive)
CCOC(=O)C1=C(CSc2nc(-c3ccccc3)ccc2C#N)OC(N)=C(C#N)C1c1ccccc1 (configuration not stated) | > 7.5 µM (inactive)
COc1cc(/C=N/O)c(Br)cc1OCC(=O)Nc1ccccc1C | > 7.5 µM (inactive)
N#CC(C#N)=C/C(C#N)=C(/N)N1CCN(c2ccc(Cl)cc2)CC1 | > 7.5 µM (inactive)
CN1CC=C2C(C#N)=C(N)C(C#N)(C#N)[C@H](c3ccoc3)[C@H]2C1 | > 7.5 µM (inactive)
NC(=O)Cn1c(O)c(N=NC(=O)CNC(=O)/C=C/c2ccccc2)c2ccccc21 | > 7.5 µM (inactive)
O=C1CC(c2ccc(F)cc2)CC(O)=C1C=NCCN1CCNCC1 (configuration not stated) | > 7.5 µM (inactive)
C/C(=N\Nc1ccc(Cl)c(C(=O)O)c1)c1ccc(N2CCOCC2)cc1 | > 7.5 µM (inactive)
COC(=O)c1ccccc1NC1CC(=O)N(c2c(C)cccc2C)C1=O (configuration not stated) | > 7.5 µM (inactive)
COc1ccc(CCn2c(O)c(C=Nc3ccc(F)cc3)c(=O)[nH]c2=O)cc1OC | > 7.5 µM (inactive)
O=C(O)C(C/C(=N/O)c1ccc(Br)cc1)P(=O)(c1ccccc1)c1ccccc1 (configuration not stated) | > 7.5 µM (inactive)
O=C(C1=C(O)C(=O)N(CCCN2CCOCC2)C1c1ccccn1)c1cc2ccccc2o1 (configuration not stated) | > 7.5 µM (inactive)
CCCCc1ccc(N=N/C(C(=O)Nc2ccc(NC(C)=O)cc2OC)=C(/C)O)cc1 | > 7.5 µM (inactive)
Oc1c(N=NC(=S)Nc2ccccc2F)c2ccccc2n1Cc1ccc(Cl)cc1 | > 7.5 µM (inactive)
Cc1cc(C)nc(SC2CC(=O)N(c3ccc(C)c(C)c3)C2=O)n1 (configuration not stated) | > 7.5 µM (inactive)
Brc1ccc(C2=CC(c3ccco3)n3ncnc3N2)cc1 (configuration not stated) | > 7.5 µM (inactive)
CC1=NCCc2c1[nH]c1cc(O)ccc21 | 2.37 µM
CC1C2CC(C(CN(C)C)/C2=N/O)C1(C)C (configuration not stated) | > 7.5 µM (inactive)
C/C(=N/NC(=O)c1ccncc1)c1cc2ccc(O)cc2oc1=O | > 7.5 µM (inactive)

Structure (SMILES) | EC50
CCOc1cccc(C2C(C(=O)c3ccc(C)o3)=C(O)C(=O)N2c2nccs2)c1 (configuration not stated) | > 7.5 µM (inactive)
Cc1nc2c(C)cccn2c1/C(O)=C1\C(=O)C(=O)N(CCN(C)C)C1c1ccccc1 (configuration not stated) | > 7.5 µM (inactive)
Cc1ccc2oc(=O)c(/C=C(\O)c3ccco3)nc2c1 | > 7.5 µM (inactive)
COC(=O)CC1=C(C(=O)OC)C(c2cc(OC)c(OC)cc2OC)C(C#N)=C(N)O1 (configuration not stated) | > 7.5 µM (inactive)
COc1ccc(N/C=C/C(=O)c2ccc(Cl)cc2)cc1 | > 7.5 µM (inactive)
COc1ccc(C(=O)/C=C/Nc2ccc(S(=O)(=O)Nc3cc(OC)nc(OC)n3)cc2)c(OC)c1 | > 7.5 µM (inactive)
COc1ccccc1C1C(C(=O)c2sc(C)nc2C)=C(O)C(=O)N1CCN1CCOCC1 (configuration not stated) | > 7.5 µM (inactive)
Cc1ccc(/C(O)=C/c2nc3cc(C)ccc3oc2=O)cc1 | 5.84 µM
CCOc1ccc(N2C(=O)C3ON(c4ccccc4)C(c4ccco4)C3C2=O)cc1 (configuration not stated) | > 7.5 µM (inactive)
Cc1cccc(CC2CC(=O)N(c3ccc(C)cc3Br)C2=O)c1 (configuration not stated) | > 7.5 µM (inactive)
O=C(C1=C(O)C(=O)N(Cc2ccccc2)C1c1cccnc1)c1ccco1 (configuration not stated) | > 7.5 µM (inactive)
CN(CCOc1ccc(CC2SC(=O)NC2=O)cc1)c1ccccn1 (configuration not stated) | > 7.5 µM (inactive)
CC[C@H]1c2[nH]c3ccccc3c2C[C@H]2C(=O)N(c3ccc(F)cc3)C(=O)N21 | > 7.5 µM (inactive)
N#Cc1ccccc1/C=N/Nc1nc(-c2ccccc2)c2cc(Cl)ccc2n1 | > 7.5 µM (inactive)
CC(C)n1c(O)c(/C=C2\C=NN=C2c2ccccc2)sc1=S | > 7.5 µM (inactive)
C/C(=N\N=C1/NC(=O)C(C)S1)c1ccc([N+](=O)[O-])cc1 (configuration not stated) | > 7.5 µM (inactive)
CC(=O)C1=C(O)C(=O)N(c2ccc(C(=O)O)cc2)C1c1ccc([N+](=O)[O-])cc1 (configuration not stated) | > 7.5 µM (inactive)
CC1(C)CC(=O)C(C(C#Cc2ccccc2)C2=C(O)CC(C)(C)CC2=O)=C(O)C1 | > 7.5 µM (inactive)
CC1OC(OCC2OC(Oc3c(-c4ccc(O)cc4)oc4cc(O)cc(O)c4c3=O)C(O)C(O)C2O)C(O)C(O)C1O (configuration not stated) | > 7.5 µM (inactive)
COc1ccc(C2C(C(=O)c3ccco3)=C(O)C(=O)N2CC2CCCO2)cc1OC (configuration not stated) | > 7.5 µM (inactive)
COc1ccc(C2C(C(=O)c3cccs3)=C(O)C(=O)N2c2nncs2)cc1 (configuration not stated) | > 7.5 µM (inactive)
Oc1ccc2nnc3c(Br)cnn3c2c1 | > 7.5 µM (inactive)
C=CCOc1ccc(/C(O)=C2/C(=O)C(=O)N(CCCN3CCOCC3)C2c2ccc(OC)cc2)cc1 (configuration not stated) | > 7.5 µM (inactive)
CC1Cc2cc(/C(O)=C3\C(=O)C(=O)N(Cc4cccnc4)C3c3ccccc3F)ccc2O1 (configuration not stated) | > 7.5 µM (inactive)

Structure (SMILES) | EC50
CCN(CC)CCN1C(=O)C(O)=C(C(=O)c2ccc(C)o2)C1c1ccccn1 (configuration not stated) | > 7.5 µM (inactive)
C/C(=N\Nc1nncc2ccccc12)c1ccc(O)cc1 | > 7.5 µM (inactive)
Cn1[nH]c(-c2ccccc2)c(/C=N/O)c1=O | > 7.5 µM (inactive)
O=C(O)CC1S/C(=N/N=C/c2ccccn2)NC1=O (configuration not stated) | > 7.5 µM (inactive)
COc1cc([N+](=O)[O-])ccc1N1C(=O)CC(Sc2nccc(C)n2)C1=O (configuration not stated) | > 7.5 µM (inactive)
O=C1CCCC(O)=C1C=Nc1ccc(O)cc1 | > 7.5 µM (inactive)
COc1ccc(N/C=C/C(=O)c2cc(OC)c(OC)c(OC)c2)cc1 | > 7.5 µM (inactive)
CC1(C)C(C#N)=C(N)OC2=C1C(=O)CCC2 | > 7.5 µM (inactive)
CCc1nnc(NS(=O)(=O)c2ccc(N=CC3=C(O)CC(C)(C)CC3=O)cc2)s1 | > 7.5 µM (inactive)
COc1ccc(NC2=C(Cl)C(=O)N(c3ccccc3)C2=O)c(OC)c1 | > 7.5 µM (inactive)
CCNc1nc(NCC)nc(N/N=C/c2ccc(N(C)C)cc2)n1 | > 7.5 µM (inactive)
CCC/C=N/O | > 7.5 µM (inactive)
COc1ccc(C2=CC(c3cc(OC)c(OC)c(OC)c3)NC(=S)N2)cc1 (configuration not stated) | > 7.5 µM (inactive)
CCn1c(O)c(/C=C2\C=NN=C2c2ccccc2)sc1=S | > 7.5 µM (inactive)
COc1ccccc1N1CCN(C2CC(=O)N(c3cccc(Cl)c3)C2=O)CC1 (configuration not stated) | > 7.5 µM (inactive)
COc1ccccc1N1C(=O)[C@@H]2C(C(=O)CN3C(=O)c4ccccc4C3=O)=NN[C@@H]2C1=O | > 7.5 µM (inactive)
O=C(/C=C/Nc1ccccc1)c1ccc(Cl)cc1Cl | > 7.5 µM (inactive)
O=[N+]([O-])c1cccc(/C=N/Nc2nccnc2Cl)c1 | > 7.5 µM (inactive)
COc1ccc(CC2C(=O)N(c3ccccc3)C(=O)N(c3ccccc3)C2=O)c(OC)c1 | > 7.5 µM (inactive)
CNC(=O)c1ccc(NC(=O)CC2SC(N3CCCC3)=NC2=O)cc1 (configuration not stated) | > 7.5 µM (inactive)
COc1cccc(CNC(=O)c2ccc(NC(=O)CC3SC(N4CCCC4)=NC3=O)cc2)c1 (configuration not stated) | > 7.5 µM (inactive)
O=C(CC1SC(N2CCCCC2)=NC1=O)Nc1cccc(C(=O)O)c1 (configuration not stated) | > 7.5 µM (inactive)
O=c1c(/C=C(\O)c2ccc(F)cc2)nc2ccccc2n1-c1ccccc1 | > 7.5 µM (inactive)
CCN(CC)CCCN1C(=O)C(=O)/C(=C(/O)c2ccccc2)C1c1cc(OC)ccc1OC (configuration not stated) | > 7.5 µM (inactive)
